According to US5645852A, “Butyric ester cyto-differtiating agents” (Sloan-Kettering Institute for Cancer Research, priority 1995, dated 1997):
Values belong to the compound of their own block, whether it stands above or below them.

How the values were obtained:
[1] = parameters: species or system male Sprague Dawley rats; settings: rat, in vivo
Method: Three male Sprague Dawley rats (Harlan Sprague Dawley, Houston, Tex.) weighing approximately 306 g were fasted overnight and gavaged with 1 gm of tributyrin (Sigma catalog #T-5142, 99% pure, 302.4M) directly into the stomach. A fourth rat-was not gavaged. Rats were sacrificed at time zero (without gavage) or 0.5, 2 and 4 hours post gavage. At time of sacrifice, each rat was anesthetized with a mixture of ketamine (87 mg/kg) and rompun (13 mg/kg). A cardiac puncture was performed and approximately 2 mls of blood was withdrawn into a heparinized vacutainer tube. Blood was centrifuged at 2000×g for 7 minutes and plasma was withdrawn and stored frozen until analysis. At the time of analysis, plasma concentration was determined by the method of Remsey and Demigne (1974) using chromatographic methods as described by Boffa et al. (1992).
A single oral dose bolus of 1 gm of tributyrin was administered to rats, and the plasma levels of free butyrate measured over 4 hours.

[2] = test system: chemically induced colon cancer; settings: 5% of the feed, mice; cited from earlier work
[3] = test system: aberrant blood cells of sickle cell anemia; settings: in vitro; cited from earlier work
HT-29 = settings: in vitro; cited from earlier work
HL-60 = settings: in vitro; cited from earlier work
[4] = test system: aberrant blood cells of thalassemia; settings: in vitro; cited from earlier work
[5] = continuous intravenous infusions, 500 mg/kg/day or higher, several days; cited from earlier work
thalassemia = settings: continuous intravenous infusions, 500 mg/kg/day or higher, several days; cited from earlier work
leukemia [6] = settings: intravenous infusions 500 mg/kg body weight per day for several days, child with leukemia; cited from earlier work
leukemia [7] = settings: intravenous infusion, 500 mg/kg per day; cited from earlier work
[8] = test system: cancer or transformed cells lines; settings: combinations of sodium butyrate and active Vitamin D forms; cited from earlier work
sickle cell = settings: continuous intravenous infusions, 500 mg/kg/day or higher, several days; cited from earlier work
[9] = test system: 1,2-dimethylhydraxine-induced rat intestine neoplasia; settings: equivalent intake to tributyrin at 5% of feed; cited from earlier work
[10] = intravenous infusion, 500 mg/kg per day; cited from earlier work
[11] = plasma, humans and rabbits; cited from earlier work

absorption of butyrate [1]: very rapidly absorbed
return of plasma butyrate to baseline [1]: almost back to baseline at 4 hours
half-life of butyrate ([1]; po): about 40 minutes
peak level of butyrates ([1]; po): 0.35 mM
time over 0.10 mM butyrate ([1]; po): about 2 hours
SMILES: CCCC(=O)OCC(COC(=O)CCC)OC(=O)CCC [tributyrin, glyceryl tributyrate]
prevention of chemically induced colon cancer [2]: ineffective
promoting or cancer increasing effect [2]: did not produce the promoting or cancer increasing effect

SMILES: CCCC(=O)O [butyrate, butyric acid]
concentration giving desirable changes of aberrant blood cells [3]: about 0.05 mM
concentration at which butyrate has differentiation action (HT-29): 0.3 to 5 mM
concentration at which butyrate has differentiation action (HL-60): 0.3 to 5 mM
concentration giving desirable changes of aberrant blood cells [4]: about 0.05 mM

SMILES: CCCC(=O)[O-].[Na+] [sodium butyrate]
metabolism of butyrate [5]: apparently rapidly metabolized
success in treating thalassemia patients (thalassemia): success
remission (leukemia [6]): short-lived remission
clinical response (leukemia [7]): no clinical response
effect of combination with active Vitamin D forms on differentiation [8]: additive or synergistic effects
success in treating sickle cell patients (sickle cell): success
promoting or cancer increasing effect [9]: promoting or cancer increasing effect
metabolic half-life [10]: about 6 minutes
half-life [11]: about 6 minutes
